PubChem BioAssay AID256 (DTP/NCI, 2004)
Values joined by “and” are separate entries in the source; they are usually repeats but may differ in a detail not shown here. Equal entries are not always repeated. Inconclusive results and toxic doses are left out.

Tested on: CD2F1 mice, L1210 leukemia ip, survival T/C
Test: NCI In Vivo Anticancer Drug Screen. Data for tumor model L1210 Leukemia (intraperitoneal) in CD2F1 (CDF1) mice
Conditions: higher = longer survival
Method in brief: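 Read-out first: treated-group measurement over vehicle-control measurement, expressed as a ratio. Animals bore a transplanted tumor line and were dosed with compound or vehicle.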

[1] = endpoint: mean survival time, dose: 100.0 mg/kg/injection, schedule: Q01DX009 (ip), vehicle: saline with Tween-80
[2] = endpoint: mean survival time, dose: 200.0 mg/kg/injection, schedule: Q01DX009 (ip), vehicle: saline with Tween-80
[3] = endpoint: mean survival time, dose: 100.0 mg/kg/injection, schedule: Q04DX002 (ip), vehicle: saline with Tween-80
[4] = endpoint: mean survival time, dose: 200.0 mg/kg/injection, schedule: Q04DX002 (ip), vehicle: saline with Tween-80
[5] = endpoint: mean survival time, dose: 400.0 mg/kg/injection, schedule: Q04DX002 (ip), vehicle: saline with Tween-80
[6] = endpoint: mean survival time, dose: 400.0 mg/kg/injection, schedule: Q01DX009 (ip), vehicle: saline with Tween-80
[7] = endpoint: mean survival time, dose: 100.0 mg/kg/injection, schedule: Q01DX001 (ip), vehicle: saline
[8] = endpoint: mean survival time, dose: 200.0 mg/kg/injection, schedule: Q01DX001 (ip), vehicle: saline
[9] = endpoint: mean survival time, dose: 400.0 mg/kg/injection, schedule: Q01DX001 (ip), vehicle: saline
[10] = endpoint: mean survival time, dose: 50.0 mg/kg/injection, schedule: Q04DX003 (ip), vehicle: saline with Tween-80
[11] = endpoint: mean survival time, dose: 100.0 mg/kg/injection, schedule: Q04DX003 (ip), vehicle: saline with Tween-80
[12] = endpoint: mean survival time, dose: 200.0 mg/kg/injection, schedule: Q04DX003 (ip), vehicle: saline with Tween-80

Structure (SMILES): CCCC(C)(C)c1ccc(Cl)cc1
- T/C (endpoint: mean survival time, dose: 50.0 mg/kg/injection, schedule: Q01DX009 (ip), vehicle: saline with Tween-80): 96 % of control
- T/C [1]: 104 % of control
- T/C [2]: 104 % of control

Structure (SMILES): O=c1c2ccccc2[nH]c(=S)n1C1CCCC1
- T/C [3]: 96 % of control
- T/C [4]: 108 % of control
- T/C [5]: 100 % of control

Structure (SMILES): COc1ccc2c(c1)C1CCCC(=O)C1N2 (configuration not stated)
- T/C [1]: 97 % of control
- T/C [2]: 91 % of control
- T/C [6]: 91 % of control

Structure (SMILES): CCCC(C)C1(CC)C(=O)NC(=O)NC1=O (configuration not stated)
- T/C (endpoint: mean survival time, dose: 20.0 mg/kg/injection, schedule: Q01DX009 (ip), vehicle: saline): 95 % of control
- T/C (endpoint: mean survival time, dose: 40.0 mg/kg/injection, schedule: Q01DX009 (ip), vehicle: saline): 104 % of control

Structure (SMILES): CC12C(=O)C=CCC1=CCC1C2CCC2(O)C(=O)OC3(C)C4CC5(C)C(COC16OC23C5C6=O)C(=O)O4 (configuration not stated)
- T/C (endpoint: median survival time, dose: 25.0 mg/kg/injection, schedule: Q01DX009 (ip), vehicle: Klucel (hydroxypropylcellulose) (HPC)): 102 % of control
- T/C (endpoint: median survival time, dose: 50.0 mg/kg/injection, schedule: Q01DX009 (ip), vehicle: Klucel (hydroxypropylcellulose) (HPC)): 96 % of control
- T/C (endpoint: median survival time, dose: 100.0 mg/kg/injection, schedule: Q01DX009 (ip), vehicle: Klucel (hydroxypropylcellulose) (HPC)): 100 % of control
- T/C (endpoint: median survival time, dose: 200.0 mg/kg/injection, schedule: Q01DX009 (ip), vehicle: Klucel (hydroxypropylcellulose) (HPC)): 108 % of control

Structure (SMILES): Cc1ccc(S(=O)(=O)N(CCCc2c(C)nc(N)nc2Cl)c2ccccc2)cc1
- T/C (endpoint: mean survival time, dose: 50.0 mg/kg/injection, schedule: Q01DX001 (ip), vehicle: Klucel (hydroxypropylcellulose) (HPC)): 100 % of control
- T/C (endpoint: mean survival time, dose: 100.0 mg/kg/injection, schedule: Q01DX001 (ip), vehicle: Klucel (hydroxypropylcellulose) (HPC)): 104 % of control
- T/C (endpoint: mean survival time, dose: 200.0 mg/kg/injection, schedule: Q01DX001 (ip), vehicle: Klucel (hydroxypropylcellulose) (HPC)): 96 % of control

Structure (SMILES): O=C(Nc1ccc(S(=O)(=O)F)cc1)c1ccc([N+](=O)[O-])cc1
- T/C [7]: 105 % of control
- T/C [8]: 100 % of control
- T/C [9]: 100 % of control

Structure (SMILES): Clc1ccc(N=Nc2ccc(Cl)cc2)cc1
- T/C (endpoint: mean survival time, dose: 25.0 mg/kg/injection, schedule: Q04DX003 (ip), vehicle: saline with Tween-80): 95 % of control
- T/C [10]: 95 % of control
- T/C [11]: 92 % of control

Structure (SMILES): CC12C3C4C5C3C1(C)C(C42)C51OCCO1 (configuration not stated)
- T/C (endpoint: mean survival time, dose: 12.5 mg/kg/injection, schedule: Q04DX002 (ip), vehicle: saline with Tween-80): 100 % of control
- T/C (endpoint: mean survival time, dose: 25.0 mg/kg/injection, schedule: Q04DX002 (ip), vehicle: saline with Tween-80): 100 % of control

Structure (SMILES): COc1ccc(NC(=O)Nc2cc(Cl)c(OC)cc2OC)cc1
- T/C [3]: 93 % of control
- T/C [4]: 86 % of control

Structure (SMILES): c1ccc(-c2nc(-c3ccccc3)n3nc4c(c3c2-c2ccccc2)CCCCCC4)cc1
- T/C [7]: 112 % of control
- T/C [8]: 108 % of control
- T/C [9]: 87 % of control

Structure (SMILES): O=c1[nH]c(NCCc2ccccc2)c(Br)c(=O)[nH]1
- T/C (endpoint: mean survival time, dose: 75.0 mg/kg/injection, schedule: Q01DX001 (ip), vehicle: saline with Tween-80): 98 % of control
- T/C (endpoint: mean survival time, dose: 150.0 mg/kg/injection, schedule: Q01DX001 (ip), vehicle: saline with Tween-80): 102 % of control
- T/C (endpoint: mean survival time, dose: 300.0 mg/kg/injection, schedule: Q01DX001 (ip), vehicle: saline with Tween-80): 106 % of control

Structure (SMILES): CC1CCc2c(ccc3ccccc23)C1=O (configuration not stated)
- T/C [1]: 97 % of control
- T/C [11]: 97 % of control
- T/C [2]: 95 % of control
- T/C [12]: 97 % of control
- T/C [6]: 97 % of control
- T/C (endpoint: mean survival time, dose: 400.0 mg/kg/injection, schedule: Q04DX003 (ip), vehicle: saline with Tween-80): 94 % of control

Structure (SMILES): Cc1cc(S(=O)(=O)c2ccc(O)c(C)c2)ccc1O
- T/C [3]: 103 % of control
- T/C [4]: 100 % of control
- T/C [5]: 97 % of control

Structure (SMILES): CCN(CC)CCCC(C)Nc1nnc2c(=O)n(C)c(=O)n(C)c2n1 (configuration not stated)
- T/C (endpoint: mean survival time, dose: 75.0 mg/kg/injection, schedule: Q01DX001 (ip), vehicle: saline): 95 % of control
- T/C (endpoint: mean survival time, dose: 150.0 mg/kg/injection, schedule: Q01DX001 (ip), vehicle: saline): 93 % of control
- T/C (endpoint: mean survival time, dose: 300.0 mg/kg/injection, schedule: Q01DX001 (ip), vehicle: saline): 87 % of control

Structure (SMILES): C[n+]1c(-c2ccc(/C=N/NC(=O)c3ccc(C(=O)N/N=C/c4ccc(-c5cn6ccccc6[n+]5C)cc4)cc3)cc2)cn2ccccc21
- T/C (endpoint: median survival time, dose: 25.0 mg/kg/injection, schedule: Q01DX005 (ip), vehicle: saline with Tween-80): 162 % of control
- T/C (endpoint: median survival time, dose: 43.2 mg/kg/injection, schedule: Q01DX005 (ip), vehicle: saline with Tween-80): 200 % of control
- T/C (endpoint: median survival time, dose: 72.0 mg/kg/injection, schedule: Q01DX005 (ip), vehicle: saline with Tween-80): 362 % of control
- T/C (endpoint: median survival time, dose: 100.0 mg/kg/injection, schedule: Q01DX005 (ip), vehicle: saline with Tween-80): 307 % of control
- T/C (endpoint: median survival time, dose: 120.0 mg/kg/injection, schedule: Q01DX005 (ip), vehicle: saline with Tween-80): 375 % of control
- T/C (endpoint: median survival time, dose: 200.0 mg/kg/injection, schedule: Q01DX005 (ip), vehicle: saline with Tween-80): 329 % of control and 375 % of control
- T/C (endpoint: median survival time, dose: 333.33 mg/kg/injection, schedule: Q01DX005 (ip), vehicle: saline with Tween-80): 162 % of control
- T/C (endpoint: median survival time, dose: 400.0 mg/kg/injection, schedule: Q01DX005 (ip), vehicle: saline with Tween-80): 329 % of control

Structure (SMILES): COc1ccc(P(c2ccc(OC)cc2)c2ccc(OC)cc2)cc1
- T/C [10]: 97 % of control
- T/C [11]: 96 % of control
- T/C [12]: 91 % of control

Structure (SMILES): CC(=O)OC1CC2(O)C(CCC3(C)C(c4ccc(=O)oc4)CCC32O)C2(C)C1=CC(O)C1OC12 (configuration not stated)
- T/C (endpoint: mean survival time, dose: 0.13 mg/kg/injection, schedule: Q01DX009 (sc), vehicle: steriod suspending solution): 100 % of control
- T/C (endpoint: mean survival time, dose: 0.25 mg/kg/injection, schedule: Q01DX009 (sc), vehicle: steriod suspending solution): 97 % of control
- T/C (endpoint: mean survival time, dose: 0.5 mg/kg/injection, schedule: Q01DX009 (sc), vehicle: steriod suspending solution): 100 % of control
- T/C (endpoint: mean survival time, dose: 1.0 mg/kg/injection, schedule: Q01DX009 (sc), vehicle: steriod suspending solution): 89 % of control

Structure (SMILES): O=[N+]([O-])c1c[n+]([O-])ccc1Cl
- T/C (endpoint: mean survival time, dose: 5.0 mg/kg/injection, schedule: Q01DX001 (ip), vehicle: saline): 101 % of control
- T/C (endpoint: mean survival time, dose: 10.0 mg/kg/injection, schedule: Q01DX001 (ip), vehicle: saline): 103 % of control

Structure (SMILES): O=C(NCCO)c1cccnc1
- T/C (endpoint: mean survival time, dose: 75.0 mg/kg/injection, schedule: Q04DX003 (ip), vehicle: saline sonified): 103 % of control
- T/C (endpoint: mean survival time, dose: 150.0 mg/kg/injection, schedule: Q04DX003 (ip), vehicle: saline sonified): 97 % of control
- T/C (endpoint: mean survival time, dose: 300.0 mg/kg/injection, schedule: Q04DX003 (ip), vehicle: saline sonified): 97 % of control
- T/C (endpoint: mean survival time, dose: 600.0 mg/kg/injection, schedule: Q04DX003 (ip), vehicle: saline sonified): 102 % of control
